Patent publication US11083724B2, “Rimegepant for CGRP related disorders” (Biohaven Pharmaceutical Holding Company Ltd., priority 2018, dated 2021)

Tested on: patients with migraine
Assay: Study 201 (BHV3000-201, NCT03266588): open label long-term safety study, rimegepant 75 mg oral tablet
Assay type: in vivo, human
Procedure: Clinical Trial-BHV3000-201: Open Label Safety Study in Acute Treatment of Migraine (ClinicalTrials.gov A phase 2⁄3 clinical study is conducted with about 2000 participants, as follows. The purpose of this study is to evaluate safety and tolerability of BHV3000 (rimegepant). Study Design • Study Type: Interventional (Clinical Trial) • Estimated Enrollment: 2000 participants • Intervention Model: Single Group Assignment • Masking: None (Open Label) • Primary Purpose: Treatment • Official Title: A Multicenter, Open Label Long-Term Safety Study of BHV3000 in the Acute Treatment of Migraine • Actual Study Start Date: Aug. 30, 2017 • Estimated Primary Completion Date: July 2019 • Estimated Study Completion Date: July 2019 Arms and Interventions Outcome Measures Primary Outcome Measures: 1. To assess the safety and tolerability of rimegepant (BHV-3000) by measuring the frequency and severity of adverse events and discontinuations due to adverse events [Time Frame: 52 weeks] Number of subjects with treatment-emergent adverse events as assessed through laboratory tests, ECGs, physical exam findings (safety and tolerability) Secondary Outcome Measures: 1. ALT or […] with total bilirubin>2×ULN [Time Frame: 52 weeks] elevated liver function tests 2. hepatic related adverse events and hepatic related adverse events that lead to discontinuation [Time Frame: 52 weeks] adverse events related to liver Results from the clinical trial described in Example 10 are summarized as follows. […] Patients were allowed to treat migraine attacks of all severities (mild to severe) up to once daily for a full year. The initial results for hepatic safety and tolerability of rimegepant 75 mg in study participants is based upon review of both adverse events and regularly scheduled liver function tests. Interim hepatic data were reviewed by an external and independent panel of liver experts. […] In the aggregate, it was noted that compared to migraine trials with drugs other than rimegepant, there was a very low incidence of overall elevations of liver function test abnormalities in rimegepant treated patients (1.0% incidence of serum ALT or […]). Subjects will continue to participate in Study 201 with additional data analyses to be submitted in the NDA and required 120-day safety updates.

`N[C@@H]1c2cccnc2[C@H](OC(=O)N2CCC(n3c(=O)[nH]c4ncccc43)CC2)CC[C@H]1c1cccc(F)c1F` [Rimegepant, [(5S,6S,9R)-5-amino-6-(2,3-difluorophenyl)-6,7,8,9-tetrahydro-5H-cyclohepta[b]pyridin-9-yl] 4-(2-oxo-3H-imidazo[4,5-b]pyridin-1-yl)piperidine-1-carboxylate] was tested, and the “>=20.0% decrease in migraines per month, number of subjects” value (Enrollment Group (2-8)) was 353, the “>=20.0% decrease in migraines per month, percent of subjects” value (Enrollment Group (2-8)) was 35.2% and the “>=25.0% decrease in migraines per month, number of subjects” value (Enrollment Group (2-8)) was 308. The “>=25.0% decrease in migraines per month, percent of subjects” value (Enrollment Group (2-8)) was 30.7%, the “>=30.0% decrease in migraines per month, number of subjects” value (Enrollment Group (2-8)) was 268 and the “>=30.0% decrease in migraines per month, percent of subjects” value (Enrollment Group (2-8)) was 26.7%. For the same molecule, the “>=35.0% decrease in migraines per month, number of subjects” value (Enrollment Group (2-8)) was 224, the “>=35.0% decrease in migraines per month, percent of subjects” value (Enrollment Group (2-8)) was 22.3% and the “>=40.0% decrease in migraines per month, number of subjects” value (Enrollment Group (2-8)) was 181. The “>=40.0% decrease in migraines per month, percent of subjects” value (Enrollment Group (2-8)) was 18.0%, the “>=45.0% decrease in migraines per month, number of subjects” value (Enrollment Group (2-8)) was 144 and the “>=45.0% decrease in migraines per month, percent of subjects” value (Enrollment Group (2-8)) was 14.3%. For the same molecule, the “>=50.0% decrease in migraines per month, number of subjects” value (Enrollment Group (2-8)) was 113, the “>=50.0% decrease in migraines per month, percent of subjects” value (Enrollment Group (2-8)) was 11.3% and the “>=20.0% decrease in migraines per month, number of subjects” value (Enrollment Group (4-14), n 269) was 159. For the same molecule, the “>=20.0% decrease in migraines per month, percent of subjects” value (Enrollment Group (4-14), n 269) was 59.1%, the “>=25.0% decrease in migraines per month, number of subjects” value (Enrollment Group (4-14), n 269) was 144 and the “>=25.0% decrease in migraines per month, percent of subjects” value (Enrollment Group (4-14), n 269) was 53.5%. The “>=30.0% decrease in migraines per month, number of subjects” value (Enrollment Group (4-14), n 269) was 130, the “>=30.0% decrease in migraines per month, percent of subjects” value (Enrollment Group (4-14), n 269) was 48.3% and the “>=35.0% decrease in migraines per month, number of subjects” value (Enrollment Group (4-14), n 269) was 117. The “>=35.0% decrease in migraines per month, percent of subjects” value (Enrollment Group (4-14), n 269) was 43.5%, the “>=40.0% decrease in migraines per month, number of subjects” value (Enrollment Group (4-14), n 269) was 100 and the “>=40.0% decrease in migraines per month, percent of subjects” value (Enrollment Group (4-14), n 269) was 37.2%. The “>=45.0% decrease in migraines per month, number of subjects” value (Enrollment Group (4-14), n 269) was 83, the “>=45.0% decrease in migraines per month, percent of subjects” value (Enrollment Group (4-14), n 269) was 30.9% and the “>=50.0% decrease in migraines per month, number of subjects” value (Enrollment Group (4-14), n 269) was 67. For the same molecule, the “>=50.0% decrease in migraines per month, percent of subjects” value (Enrollment Group (4-14), n 269) was 24.9%, the “>=20.0% decrease in migraines per month, number of subjects” value (Enrollment Group (9-14), n 458) was 171 and the “>=20.0% decrease in migraines per month, percent of subjects” value (Enrollment Group (9-14), n 458) was 37.3%. For the same molecule, the “>=25.0% decrease in migraines per month, number of subjects” value (Enrollment Group (9-14), n 458) was 150, the “>=25.0% decrease in migraines per month, percent of subjects” value (Enrollment Group (9-14), n 458) was 32.8% and the “>=30.0% decrease in migraines per month, number of subjects” value (Enrollment Group (9-14), n 458) was 125. For the same molecule, the “>=30.0% decrease in migraines per month, percent of subjects” value (Enrollment Group (9-14), n 458) was 27.3%, the “>=35.0% decrease in migraines per month, number of subjects” value (Enrollment Group (9-14), n 458) was 101 and the “>=35.0% decrease in migraines per month, percent of subjects” value (Enrollment Group (9-14), n 458) was 22.1%. For the same molecule, the “>=40.0% decrease in migraines per month, number of subjects” value (Enrollment Group (9-14), n 458) was 81, the “>=40.0% decrease in migraines per month, percent of subjects” value (Enrollment Group (9-14), n 458) was 17.7% and the “>=45.0% decrease in migraines per month, number of subjects” value (Enrollment Group (9-14), n 458) was 60. The “>=45.0% decrease in migraines per month, percent of subjects” value (Enrollment Group (9-14), n 458) was 13.1%, the “>=50.0% decrease in migraines per month, number of subjects” value (Enrollment Group (9-14), n 458) was 46 and the “>=50.0% decrease in migraines per month, percent of subjects” value (Enrollment Group (9-14), n 458) was 10.0%. The “>=20.0% decrease (reduction in headache days per month of at least 20%), number of subjects” value (Overall, of 1731 subjects) was 683, the “>=20.0% decrease (reduction in headache days per month of at least 20%), percent of subjects” value (Overall, of 1731 subjects) was 39.5% and the “>=25.0% decrease (reduction in headache days per month of at least 25%), number of subjects” value (Overall, of 1731 subjects) was 602. The “>=25.0% decrease (reduction in headache days per month of at least 25%), percent of subjects” value (Overall, of 1731 subjects) was 34.8%, the “>=30.0% decrease (reduction in headache days per month of at least 30%), number of subjects” value (Overall, of 1731 subjects) was 523 and the “>=30.0% decrease (reduction in headache days per month of at least 30%), percent of subjects” value (Overall, of 1731 subjects) was 30.2%. For the same molecule, the “>=35.0% decrease (reduction in headache days per month of at least 35%), number of subjects” value (Overall, of 1731 subjects) was 442, the “>=35.0% decrease (reduction in headache days per month of at least 35%), percent of subjects” value (Overall, of 1731 subjects) was 25.5% and the “>=40.0% decrease (reduction in headache days per month of at least 40%), number of subjects” value (Overall, of 1731 subjects) was 362. For the same molecule, the “>=40.0% decrease (reduction in headache days per month of at least 40%), percent of subjects” value (Overall, of 1731 subjects) was 20.9%, the “>=45.0% decrease (reduction in headache days per month of at least 45%), number of subjects” value (Overall, of 1731 subjects) was 287 and the “>=45.0% decrease (reduction in headache days per month of at least 45%), percent of subjects” value (Overall, of 1731 subjects) was 16.6%. For the same molecule, the “>=50.0% decrease (reduction in headache days per month of at least 50%), number of subjects” value (Overall, of 1731 subjects) was 226, the “>=50.0% decrease (reduction in headache days per month of at least 50%), percent of subjects” value (Overall, of 1731 subjects) was 13.1% and the “headache days per month, treatment phase versus observation phase” value (Study 201) was “fewer headache days per month”. For the same molecule, the “Hy's Law cases” value (Study 201 interim analysis) was “no Hy's Law cases”, the “liver cases assessed as probably related to study drug” value (Study 201 interim analysis) was “no liver cases” and the “incidence of serum ALT or AST >3×ULN” value (Study 201 interim analysis, 75 mg up to once daily) was 1.0%. For the same molecule, the liver safety signal (Study 201 interim, including near-daily dosing (≥15 doses/month)) was “no liver safety signal detected”.
